These results are taken from patent publication US20240293337A1, “USE OF DOXERCALCIFEROL TO TREAT AND/OR PREVENT UTERINE FIBROIDS OR POLYCYSTIC OVARY SYNDROME” (priority 2023, published 2024).

For data set [1], the system named is Human MSC derived adipocytes. Description: MSC derived adipocyte differentiation, 14 days, morphology and oil red-O staining. It is filed as cell-based. The settings on record: 100 nM. As to the method:
Human mesenchymal stem cells (MSC) are used as an in vitro cell culture model of adipocyte precursors to assess adipocyte differentiation. MSC cells are purchased from (Lonza). The cells are cultured in the DMEM/F12 media containing 10% FBS. At approximately 80% confluence, the cells are trypsinized using TrypLE select enzyme (Gibco, MA) and are serially expanded. At the end of the culture expansion, MSCs are collected and centrifuged at 300×g for 5 minutes. Human MSCs are treated with doxercalciferol and are cultured in adipocyte induction medium for 14 days. Mesenchymal Adipogenesis Kit (Sigma) and manufacturer's induction protocol are used for adipocyte induction. Imaging and morphology analysis is performed on days 1, 7, 10, and 14. On day 14 when adipocyte differentiation is completed, the cells undergo oil red-O staining and are imaged for further morphology analysis.

Data set [2] concerns letrozole induced polycystic ovary syndrome (PCOS) mouse models. Description: Glucose tolerance test in PCOS mice. It is filed as in vivo, C57BL/6 mice. Particulars: 300 ng/kg i.p. 3 times per week, 120 minutes after IP glucose injection. The procedure: At 3.5 weeks of age, mice (n=11/group) are subcutaneously implanted with a placebo or 5 mg letrozole (LTZ) pellet (Innovative Research of America, Sarasota, FL, USA), which provides a constant release of LTZ (50 μg/day). Body weight is monitored weekly before and post-implantation. Body weight and insulin resistance (measured by glucose tolerance test, GTT) are used to monitor development of PCOS characteristics.
Five weeks after placebo or LTZ pellet implantation, mice undergo intraperitoneal injection of doxercalciferol (300 ng/kg) or saline 3 times per week for 6 weeks. Six weeks after doxercalciferol treatment, the mice are anesthetized and ovary, uterus, gonadal white fat, kidney, and liver tissue are collected. Each of these tissues are fixed in 4% paraformaldehyde for further histological analysis.
Glucose tolerance testing is performed on healthy, PCOS, and treated mice 3 weeks after doxercalciferol treatment. Mice are fasting for 16 h (5 p.m. to 9 a.m.), with free access to drinking water, after which they receive an intra-peritoneal (i.p.) injection of D-glucose (2.0 g/kg body weight). Blood glucose level is measured at 0, 15, 30, 60, 90, and 120 minutes following glucose injection using a Bayer glucose monitor (Roche Diagnostics Corp, IN, USA).

Data set [3] has the same test system. Briefly: Histology (H&E) of PCOS mouse tissues. It is filed as in vivo, C57BL/6 mice. Particulars: after five weeks of treatment. The procedure: […] […] Each of these tissues are fixed in 4% paraformaldehyde for further histological analysis. Ovary, uterus, gonadal white fat, kidney, and liver tissue are collected and fixed in 4% paraformaldehyde. Tissue sections are stained with hematoxylin-eosin (H&E). Histological analyses are performed using Asperio ImageScope (Leica Biosystem, Wetzlar, Germany).

Data set [4] is described as follows: Body weight change in PDX UF mice. It is filed as in vivo, NOD/SCID mice. Particulars: 300 ng/kg i.p. 3 times per week, 6 weeks. The procedure:
(§1) After xenograft mice undergo intraperitoneal injection of doxercalciferol (300 ng/kg, 3 times per week) or saline for 6 weeks. Body weight is monitored weekly during doxercalciferol treatment. Six weeks after doxercalciferol treatment insulin resistance is assessed using GTT and then mice are anesthetized and blood is collected to measure liver enzyme and AMH levels, ovary tissue is removed for histological analysis, total RNA is extracted for sequencing, and tumor size is measured with a digital caliper.

Data set [5] has as its system H295R cells. Briefly: H295R theca-like cells, cell morphology and cell number after 24 h treatment. It is filed as cell-based, human. Particulars: 100 nM. As to the method: Human adrenocortical-carcinoma cells (H295R cells) are used as an in vitro cell culture model of ovarian theca cells to assess androgen production. H295R cells are purchased from ATCC (Manassas, VA, USA, cat. no. ATCC® CRL-2128™) and cultured per the recommended guidelines. These cells are isolated from a donor. Briefly, H295R cells are cultured in flasks pre-coated with extracellular matrix (Gibco, USA, cat. no. S-006-100) with DMEM/F12 (Gibco, cat. no. 21041025) and 2.5% Nu-Serum (Corning, USA). The cells are subcultured at a ratio of 1:4, resulting in a cell density of approximately 3×10^6 in T75 flasks.
(§2) H295R cells are subcultured in T75 flasks for 24 hours. Cells are then treated for 24 hours with serum free basal media as a control or doxercalciferol at 1 nM, 10 nM, or 100 nM diluted in basal media (serum-free) at a 1:1 ratio. After the incubation period, cells are imaged and analyzed for morphology and cell count. Cells are then collected for analysis of steroidogenesis-related gene expression. Cell culture media are collected and used for testosterone quantification using ELISA based Testosterone Parameter Assay Kit (R&D system) per the manufacturer's protocol. The testosterone level is quantified using a multimode microplate reader system, Varioskan LUX Multimode Microplate Reader (Thermo Fisher).

The nature of data set [6]: Serum chemistry in PCOS mice. It is filed as in vivo, C57BL/6 mice. Particulars: after five weeks of treatment, most of the serum levels.
In data set [7] the test system is H295R cells. Briefly: Testosterone production in H295R cell conditioned media (ELISA). It is filed as cell-based, human. Particulars: 24 hours. The procedure:
as §2
(ELISA stands for enzyme-linked immunosorbent assay.)

Data set [8] in a line: Serum measurements in PDX UF mice (liver enzymes, calcium, AMH). It is filed as in vivo, NOD/SCID mice. The procedure: as §1
Blood is collected from all groups by cardiac exsanguination under isoflurane anesthesia: serum is separated and stored at −80° C. Serum levels are measured for AMH, ALT, and total bilirubin.

The subject of data set [9] is patient derived xenograft (PDX) mouse model of uterine fibroids (UF). Description: Tumor growth in patient derived xenograft (PDX) mouse model of uterine fibroids. It is filed as in vivo, NOD/SCID mice. The settings on record: PDX UF mice, 300 ng/kg i.p. 3 times per week, 6 weeks. As to the method: Female NOD/SCID are housed in a vivarium for 1 week under specific pathogen-free conditions. The animal experiment protocol for this study is approved, and all animal experiments are performed in compliance with policies and guidelines for use of laboratory animals. UF samples are obtained from African-American female patients with UF (n=4). This human UF tissue is xenografted into female mice that have been hormonally supplemented with progesterone and estradiol (n=2 mice/patient). Tumor size is measured at implantation. After xenograft mice undergo intraperitoneal injection of doxercalciferol (300 ng/kg, 3 times per week) or saline for 6 weeks. Body weight is monitored weekly during doxercalciferol treatment. Six weeks after doxercalciferol treatment insulin resistance is assessed using GTT and then mice are anesthetized and blood is collected to measure liver enzyme and AMH levels, ovary tissue is removed for histological analysis, total RNA is extracted for sequencing, and tumor size is measured with a digital caliper.

As to `C=C1/C(=C\C=C2/CCC[C@]3(C)[C@@H]([C@H](C)/C=C/[C@H](C)C(C)C)CC[C@@H]23)C[C@@H](O)C[C@@H]1O` [doxercalciferol], the “Oil red-O staining, presence of adipocytes” value in data set [1] (1 nM, 10 nM, day 14) is recorded as “presence of adipocytes in all treatment groups except the 100 nM group”. Further, the cell morphology result in data set [1] (14 days) is on record as “most cells dead”. Besides, in data set [2], the “blood glucose levels, vs control mice” value is given as “elevated levels compared to control mice” and the “blood glucose levels, vs untreated PCOS mice” value was “significantly lower blood glucose levels”. In [3] (PCOS mice), the “kidney and liver histology” value was “no significant evidence of tissue damage or inflammation”. Further, in data set [3] (PCOS mice, untreated PCOS mice have numerous cysts), the “ovary histology (follicles)” value was “good numbers of follicles”. In [3], the “gonad white fat histology, adipocyte size vs untreated PCOS mice” value is reported as “reduced adipocyte size” and the “uterus histology, vs untreated PCOS mice” value is reported as “improved uterine epithelial cell organization”. Also, in [4], the “decrease in body weight” value was found to be 24%. Moreover, the cell morphology result in the data set with H295R cells [5] was “most of the cells in the 100 nM doxercalciferol treatment group are dead”. Also, the cell number result with H295R cells [5] (vs other groups) was “significantly fewer cells”. For the same molecule, the “serum levels vs reference range of C57BL/6 mice” value in [6] is on record as “overlap with the reference range”. Further, the Testosterone production entry in the data set on H295R cells [7] (1 nM) is reported as “significantly decreased”. Moreover, in the data set on H295R cells [7] (10 nM), the Testosterone production entry was “not significantly changed”. Further, the Testosterone production entry in the data set on H295R cells [7] (100 nM) is “significantly decreased”. Also, the “calcium levels vs reference range for NOD CB17-Prkdc^scid/NcrCrl mice” value in data set [8] is listed as “overlap with the reference range”. Besides, the “calcium level, Mean” value in data set [8] (N 4) is given as 11.93. Also, in data set [8] (vs control), the ALT level result is “no significant effect”, the AMH serum levels result was “no significant effect”, the AST level result is given as “no significant effect” and the total bilirubin level entry is given as “no significant effect”. Besides, the “tumor growth (significant reduction, down to)” value in data set [9] is recorded as 55.6%.
